Experimental data taken from ChEMBL document CHEMBL1141136, “Discovery of potent poly(ADP-ribose) polymerase-1 inhibitors from the modification of indeno[1,2-c]isoquinolinone” (J Med Chem, 2005).
Several values for one entry are separate records, joined by “and”; a condition that tells them apart may be missing. Equal entries are not always repeated.

What follows are compounds tested against Poly [ADP-ribose] polymerase 1 (Homo sapiens, UniProt P09874) (assay: Inhibitory concentration against purified poly ADP-ribose polymerase-1 done in PARP inhibition assay kit).
Chain of Poly [ADP-ribose] polymerase 1 (P09874 whole entry): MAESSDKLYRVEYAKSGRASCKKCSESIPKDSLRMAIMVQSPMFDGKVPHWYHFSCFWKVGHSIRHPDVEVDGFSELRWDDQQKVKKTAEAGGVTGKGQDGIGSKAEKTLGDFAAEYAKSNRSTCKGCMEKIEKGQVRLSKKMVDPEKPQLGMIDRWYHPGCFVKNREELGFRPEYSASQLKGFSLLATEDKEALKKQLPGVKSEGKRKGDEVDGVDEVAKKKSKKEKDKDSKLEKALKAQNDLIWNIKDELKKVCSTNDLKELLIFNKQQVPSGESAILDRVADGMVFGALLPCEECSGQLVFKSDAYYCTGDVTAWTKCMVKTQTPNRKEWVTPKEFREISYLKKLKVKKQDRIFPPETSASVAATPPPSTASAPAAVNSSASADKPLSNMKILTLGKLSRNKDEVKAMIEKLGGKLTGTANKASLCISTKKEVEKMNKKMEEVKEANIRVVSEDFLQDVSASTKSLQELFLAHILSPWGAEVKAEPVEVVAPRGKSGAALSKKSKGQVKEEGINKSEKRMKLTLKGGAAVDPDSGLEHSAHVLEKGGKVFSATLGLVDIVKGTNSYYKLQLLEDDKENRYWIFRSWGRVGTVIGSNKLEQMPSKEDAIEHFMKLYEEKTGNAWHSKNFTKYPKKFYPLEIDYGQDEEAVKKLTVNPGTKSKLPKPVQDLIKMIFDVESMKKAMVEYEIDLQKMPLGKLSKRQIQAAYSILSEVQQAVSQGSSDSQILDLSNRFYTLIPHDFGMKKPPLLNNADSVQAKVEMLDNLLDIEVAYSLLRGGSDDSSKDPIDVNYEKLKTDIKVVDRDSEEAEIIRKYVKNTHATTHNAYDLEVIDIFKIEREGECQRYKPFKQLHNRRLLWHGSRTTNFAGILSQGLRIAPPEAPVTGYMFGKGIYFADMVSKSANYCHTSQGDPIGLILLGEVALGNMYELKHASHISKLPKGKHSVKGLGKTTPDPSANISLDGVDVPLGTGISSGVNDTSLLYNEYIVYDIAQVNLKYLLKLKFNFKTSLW

Row | Compound | IC50
1 | O=S(=O)(NCCCNN1CCOCC1)c1cc2c(cc1F)-c1nc(O)c3ccccc3c1C2 | 0.45 µM
2 | O=c1[nH]c2c(c3ccccc13)Cc1cc(F)ccc1-2 | 0.65 µM
3 | Nc1ccc2c(c1)Cc1c-2[nH]c(=O)c2ccccc12 | 0.098 µM
4 | Nc1ccc2c(c1)-c1[nH]c(=O)c3ccccc3c1C2 | 0.3 µM
5 | O=c1[nH]c2c(c3ccccc13)Cc1cc(S(=O)(=O)NCCCn3ccnc3)ccc1-2 | 0.394 µM
6 | O=[N+]([O-])c1ccc2c(c1)-c1nc(O)c3ccccc3c1C2 | 0.5 µM
7 | O=S(=O)(O)c1ccc2c(c1)Cc1c-2nc(O)c2ccccc12 | 0.7 µM
8 | O=c1[nH]c2c(c3ccccc13)Cc1cc(S(=O)(=O)n3ccnc3)c(F)cc1-2 | 0.5 µM

Second part, the compound after the results:

Row | IC50 | Compound
9 | 0.3 µM | O=c1[nH]c2c(c3ccccc13)Cc1cc([N+](=O)[O-])ccc1-2
10 | > 3 µM and 0.4 µM | O=C(CN1CCOCC1)Nc1ccc2c(c1)-c1nc(O)c3ccccc3c1C2
11 | > 3 µM | O=c1[nH]c2c(c3ccccc13)Cc1ccccc1-2
12 | > 3 µM | CN1CCN(CC(=O)Nc2ccc3c(c2)-c2[nH]c(=O)c4ccccc4c2C3)CC1
13 | > 3 µM | O=c1[nH]c2c(c3ccccc13)Cc1cc(S(=O)(=O)NCCCc3ccccc3)ccc1-2
14 | 0.5 µM | Oc1nc2c(c3ccccc13)Cc1ccc(F)cc1-2
